Assays:
Assay in all cases: relative viability (nuclei count vs DMSO), 5 days (fraction); higher = more cells survive
CUDC-101 + Alpelisib = compound: C#Cc1cccc(Nc2ncnc3cc(OC)c(OCCCCCCC(=O)NO)cc23)c1 [CUDC-101] + Cc1nc(NC(=O)N2CCC[C@H]2C(N)=O)sc1-c1ccnc(C(C)(C)C(F)(F)F)c1 [Alpelisib] (partner 2 µM)
Procedure, shortened: (§1)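 The day after seeding in 1536-well plates, lung cancer cell lines were treated by pin tool with a single drug, or with a fixed anchor-drug dose together with five library-drug doses (not always all listed) in √10 steps. After 5 days, a combined fix-and-stain solution (final 0.05% Triton X-100, 1% formaldehyde, 1 ug/ml Hoechst) was added. Nuclei counted on 4× images gave relative viability as treated counts over vehicle counts, reported as the median of duplicate plates.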

CUDC-101 + Phenformin = compound: C#Cc1cccc(Nc2ncnc3cc(OC)c(OCCCCCCC(=O)NO)cc23)c1 [CUDC-101] + N=C(N)NC(=N)NCCc1ccccc1 [Phenformin] (partner 250 µM)
Procedure, shortened: as §1

[1] = compound: C1=CC=C2C(=C1)N=C(S2)C(C#N)C3=NC(=NC=C3)NCCC4=CN=CC=C4 + C[C@@H](Oc1cc(-c2cnn(C3CCNCC3)c2)cnc1N)c1c(Cl)ccc(F)c1Cl [Crizotinib] (partner 1 µM)
Procedure, shortened: as §1

Vandetanib + Navitoclax = compound: COc1cc2/c(=N/c3ccc(Br)cc3F)nc[nH]c2cc1OCC1CCN(C)CC1 [Vandetanib] + CC1(C)CCC(c2ccc(Cl)cc2)=C(CN2CCN(c3ccc(C(=O)NS(=O)(=O)c4ccc(N[C@H](CCN5CCOCC5)CSc5ccccc5)c(S(=O)(=O)C(F)(F)F)c4)cc3)CC2)C1 [Navitoclax] (partner 0.5 µM)
Procedure, shortened: as §1

Cell Line: UMC-11
- relative viability (CUDC-101 + Alpelisib; first compound 0.01 µM): 1.24
- relative viability (CUDC-101 + Alpelisib; first compound 0.03162 µM): 0.902
- relative viability (CUDC-101 + Alpelisib; first compound 0.1 µM): 0.779
- relative viability (CUDC-101 + Alpelisib; first compound 0.3162 µM): 0.395
- relative viability (CUDC-101 + Alpelisib; first compound 1 µM): 0.123
- relative viability (CUDC-101 + Phenformin; first compound 0.01 µM): 0.337
- relative viability (CUDC-101 + Phenformin; first compound 0.03162 µM): 0.285
- relative viability (CUDC-101 + Phenformin; first compound 0.1 µM): 0.262
- relative viability (CUDC-101 + Phenformin; first compound 0.3162 µM): 0.167
- relative viability (CUDC-101 + Phenformin; first compound 1 µM): 0.102
- relative viability ([1]; first compound 0.005 µM): 0.487
- relative viability ([1]; first compound 0.01581 µM): 0.561
- relative viability ([1]; first compound 0.05 µM): 0.602
- relative viability ([1]; first compound 0.1581 µM): 0.654
- relative viability ([1]; first compound 0.5 µM): 0.5
- relative viability (Vandetanib + Navitoclax; first compound 0.02 µM): 0.312
- relative viability (Vandetanib + Navitoclax; first compound 0.06325 µM): 0.311
- relative viability (Vandetanib + Navitoclax; first compound 0.2 µM): 0.286
- relative viability (Vandetanib + Navitoclax; first compound 0.6325 µM): 0.308
- relative viability (Vandetanib + Navitoclax; first compound 2 µM): 0.309
